Where a name gives a salt, the structure may show the parent alone.
Tested on: ACHN cell line
Assay: drug screen of the SelleckChem kinase inhibitor library with and without 5 uM SU-329, Cell-Titer Glo after 5 days
Assay type: cell-based
Conditions: kinase inhibitor at 200 nM with and without 5 uM SU329; ACHN cell line; 5 days; Cell-Titer Glo

| Structure (SMILES) | log2fc |
| --- | --- |
| Cn1c(Nc2ccc(C(F)(F)F)cc2)nc2cc(Oc3ccnc(-c4ncc(C(F)(F)F)[nH]4)c3)ccc21 [RAF265 (CHIR-265)] | 0.9001 |
| CC1=C(C(=O)Nc2cc3cn[nH]c3cc2F)C(c2ccc(C(F)(F)F)cc2)CC(=O)N1 (stereo not shown) [GSK429286A] | −0.03939 |
| COc1c(C)c(C(=O)c2ccc(N)c(C(=O)[O-])c2)n2ccccc12.[Na+] [SSR128129E] | 0.3473 |
| C#Cc1cccc(Nc2ncnc3cc(OC)c(OCCCCCCC(=O)NO)cc23)c1 [CUDC-101, reference compound] | 0.1269 |
| Cn1cnc(N)c2ncnc1-2 [3-Methyladenine (3-MA)] | 0.3232 |
| NCC(=O)Nc1ccc(-n2nc(C(F)(F)F)cc2-c2ccc3c(ccc4ccccc43)c2)cc1 [OSU-03012 (AR-12)] | 0.7911 |
| CC(C)CCN1c2nc(Nc3cc(F)c(O)c(F)c3)ncc2N(C)C(=O)C1C (stereo not shown) [BI-D1870] | 0.7499 |
| CC(C)(O)CC(=O)NCCn1ccc2ncnc(Nc3ccc(Oc4cccc(C(F)(F)F)c4)c(Cl)c3)c21 [TAK-285, reference compound] | 0.3876 |
| Cn1cnc2c(F)c(Nc3ccc(Br)cc3F)c(C(=O)NOCCO)cc21 [Binimetinib (MEK162, ARRY-162, ARRY-438)] | 0.5434 |
| C=CC(=O)Nc1cccc(Oc2nc(Nc3ccc(N4CCN(C)CC4)cc3)ncc2Cl)c1 [WZ3146, reference compound] | 0.05459 |
| COc1cc(F)c(F)c(Nc2ccc(I)cc2F)c1NS(=O)(=O)C1(C[C@H](O)CO)CC1 [Refametinib (RDEA119, Bay 86-9766)] | 0.4867 |
| COc1cc2ncnc(Nc3cccc(Cl)c3)c2cc1OC [AG-1478 (Tyrphostin AG-1478), AG-1478, reference compound] | 0.2903 |
| CCc1nc(-c2cccc(C)c2)c(-c2ccnc(NC(=O)c3ccccc3)c2)s1 [TAK-715] | 0.02439 |
| CNC(=O)CN1CCC(Oc2cc3c(Nc4cccc(Cl)c4F)ncnc3cc2OC)CC1 [Sapitinib (AZD8931), AZD8931, reference compound] | 0.358 |
| C=CC(=O)N1CCC[C@@H](n2nc(-c3ccc(Oc4ccccc4)cc3)c3c(N)ncnc32)C1 [Ibrutinib (PCI-32765)] | 1.289 |
| C[C@@H](Oc1cc(-c2cnn(C3CCNCC3)c2)cnc1N)c1c(Cl)ccc(F)c1Cl [Crizotinib (PF-02341066)] | 0.196 |
| CSc1cccc(Nc2ncc3cc(-c4c(Cl)cccc4Cl)c(=O)n(C)c3n2)c1 [PD173955] | −0.1932 |
| C[C@@H](Oc1cc(-n2cnc3ccc(CN4CCN(C)CC4)cc32)sc1C(N)=O)c1ccccc1C(F)(F)F [GSK461364] | 0.9925 |
| CCCCCCCCc1ccc(CCC(N)(CO)CO)cc1.Cl [Fingolimod (FTY720) HCl] | 0.7051 |
| CCN(CCO)CCCOc1ccc2c(Nc3cc(CC(=O)Nc4cccc(F)c4)[nH]n3)ncnc2c1 [Barasertib (AZD1152-HQPA)] | 0.7387 |
| CC(=O)Nc1nc(C)c(-c2ccc(Cl)c(S(=O)(=O)NCCO)c2)s1 [PIK-93] | 0.3162 |
| COCC(=O)NC/C=C/c1ccc2ncnc(Nc3ccc(Oc4ccc(C)nc4)c(C)c3)c2c1 [CP-724714, reference compound] | 0.2836 |
| CC1(C)CNc2cc(NC(=O)c3cccnc3NCc3ccncc3)ccc21.O=P(O)(O)O.O=P(O)(O)O [Motesanib Diphosphate (AMG-706)] | −0.1118 |
| CCCCOc1c(C(=O)c2c(F)cc(C)cc2F)c[nH]c2nncc1-2 [BMS-265246] | −0.1077 |

| Structure (SMILES) | log2fc |
| --- | --- |
| C[C@H](Nc1ncnc2nc[nH]c12)c1cc2cccc(Cl)c2c(=O)n1-c1ccccc1 [Duvelisib (IPI-145, INK1197)] | −0.2128 |
| C#Cc1cccc(Nc2ncnc3cc4c(cc23)OCCOCCOCCO4)c1 [Icotinib] | 0.1182 |
| Oc1cc(O)cc(/C=C/c2ccc(O)c(O)c2)c1 [Piceatannol] | 0.5447 |
| Cc1cc(Nc2nc(N[C@@H](C)c3ncc(F)cn3)ncc2Cl)[nH]n1 [AZD1480] | 0.4813 |
| CCN1CCN(Cc2ccc(Nc3ncc(F)c(-c4cc(F)c5nc(C)n(C(C)C)c5c4)n3)nc2)CC1 [abemaciclib (LY2835219)] | 0.1618 |
| CN1CCC(COc2cnc(-c3cccc(Cn4nc(-c5cccc(C#N)c5)ccc4=O)c3)nc2)CC1 [Tepotinib (EMD 1214063)] | 0.04059 |
| CCn1c(=O)c(-c2ccc(-c3cncs3)cc2Cl)cc2cnc(Nc3ccc(N4CCN(C)CC4)cc3)nc21 [FRAX597] | −0.0718 |
| NC(=O)c1ncn([C@@H]2O[C@H](CO)[C@@H](O)[C@H]2O)c1N [AICAR (Acadesine)] | 0.7164 |
| NC(=O)Nc1cc(-c2cccc(F)c2)sc1C(=O)N[C@H]1CCCNC1 [AZD7762] | 0.8568 |
| CNc1nc(-c2ccc3c(N)n[nH]c3c2)cc(N2C[C@@H](C(=O)NC3CCCCC3)CC[C@H]2C)n1 [GSK2334470] | −1.111 |
| CC(C)NC[C@@H](C(=O)N1CCN(c2ncnc3c2[C@H](C)C[C@H]3O)CC1)c1ccc(Cl)cc1 [Ipatasertib (GDC-0068)] | −0.5082 |
| COc1cc2nccc(Oc3ccc(NC(=O)C4(C(=O)Nc5ccc(F)cc5)CC4)cc3)c2cc1OC.O=C(O)C[C@H](O)C(=O)O [Cabozantinib malate (XL184)] | 0.5713 |
| Cc1ccc(C(=O)Nc2ccc(CN3CCN(C)CC3)c(C(F)(F)F)c2)cc1C#Cc1cnc2cccnn12 [Ponatinib (AP24534)] | −0.4485 |
| COc1cc2c(Oc3ccc(NC(=O)C4(C(=O)Nc5ccc(F)cc5)CC4)cc3F)ccnc2cc1OCCCN1CCOCC1 [Foretinib (GSK1363089)] | −0.1359 |
| c1cncc(CN2CCC(n3ncc4c(N5CCOCC5)nc(-c5ccc6[nH]ccc6c5)nc43)CC2)c1 [WAY-600] | −1.322 |
| CCc1cncnc1N1CCN(Cc2nc3ccc(C(F)(F)F)cc3[nH]2)CC1 [PF-4708671] | 0.5187 |
| C=CC(=O)Nc1cccc(Nc2nc(Nc3ccc(N4CCN(C(C)=O)CC4)cc3OC)ncc2C(F)(F)F)c1 [Rociletinib (CO-1686, AVL-301)] | −0.001899 |
| Oc1cccc(-c2nc(N3CCOCC3)c3oc4ncccc4c3n2)c1 [PI-103] | −1.021 |
| CCOc1ccn(-c2ccc(F)cc2)c(=O)c1C(=O)Nc1ccc(Oc2ccnc(N)c2Cl)c(F)c1 [BMS-777607] | −0.5095 |
| CC[C@H](Nc1ncnc2[nH]cnc12)c1nc2cccc(F)c2c(=O)n1-c1ccccc1 [Idelalisib (CAL-101, GS-1101)] | 0.09838 |
| COc1ccc2c(c1)c(C1=C(c3c[nH]c4ccccc34)C(=O)NC1=O)cn2CCCN(C)C [Go 6983] | 0.08992 |
| Cn1c(=O)c(F)c(Nc2ccc(I)cc2F)c2c(=O)n(C[C@@H](O)CO)cnc21 [TAK-733, reference compound] | 0.08618 |
| CC(O)C(=O)O.CC(O)C(=O)O.CN1CCN(c2ccc3nc(-c4c(N)c5c(F)cccc5[nH]c4=O)[nH]c3c2)CC1 [Dovitinib (TKI-258) Dilactic Acid] | −0.3598 |
| CN1CCCN(C(=O)c2cccc(-c3ccc(/C=C4/C(=O)Nc5ccc(Cl)cc54)o3)c2)CC1.Cl [CX-6258 HCl] | −0.355 |

| Structure (SMILES) | log2fc |
| --- | --- |
| CC[C@H](CO)Nc1nc(NCc2ccccc2)c2ncn(C(C)C)c2n1 [Roscovitine (Seliciclib, CYC202)] | 0.5993 |
| CNC(=O)c1ccccc1Nc1nc(Nc2ccc(N3CCOCC3)cc2OC)ncc1Cl [TAE226 (NVP-TAE226)] | −0.08897 |
| O=C(c1ccc(/C=C/c2n[nH]c3ccccc23)cc1)N1CCNCC1 [KW-2449] | −0.0564 |
| COc1cc(CCc2cc(NC(=O)c3ccc(N4CC(C)NC(C)C4)cc3)n[nH]2)cc(OC)c1 (stereo not shown) [AZD4547] | 0.4725 |
| Fc1cc(-c2cccc3ncc(-c4cnn(C5CCNCC5)c4)nc23)cc(F)c1CN1CCOCC1 [NVP-BSK805 2HCl] | −0.09499 |
| Nc1ccc(-c2ccc3ncc4ccc(=O)n(-c5cccc(C(F)(F)F)c5)c4c3c2)cn1 [Torin 2] | 1.267 |
| CC(C)(C)n1nc(-c2ccc(Cl)cc2)c2c(N)ncnc21 [PP2] | −0.01088 |
| Cc1cnc(-c2cnc(NCCNc3ccc(C#N)cn3)nc2-c2ccc(Cl)cc2Cl)[nH]1 [CHIR-99021 (CT99021)] | 1.316 |
| COc1ccc(S(=O)(=O)N(CCO)c2ccccc2CN(C)C/C=C/c2ccc(Cl)cc2)cc1.O=P(O)(O)O [KN-93 Phosphate] | 0.02491 |
| Cc1cc([C@@H](C)Nc2ccccc2C(=O)O)c2nc(N3CCOCC3)cc(=O)n2c1 [AZD6482] | −0.1098 |
| CCc1cc(Nc2nccc(-c3c(-c4ccc(OC)c(C(=O)Nc5c(F)cccc5F)c4)nc4ccccn34)n2)c(OC)cc1N1CCC(N2CCN(S(C)(=O)=O)CC2)CC1 [GSK1904529A] | 0.6211 |
| CNC(=O)c1cc(Oc2ccc(NC(=O)Nc3ccc(Cl)c(C(F)(F)F)c3)cc2)ccn1 [Sorafenib Tosylate] | −0.2533 |
| CCCNC(=O)Nc1ccc(Oc2ncnc3cc(OC)c(OC)cc23)cc1Cl [KRN 633] | 0.02524 |
| CNC(=O)c1cc(Oc2ccc(NC(=O)Nc3ccc(Cl)c(C(F)(F)F)c3)c(F)c2)ccn1 [Regorafenib (BAY 73-4506)] | 0.8333 |
| O=C(NCCCNc1nc(Nc2cccc(NC(=O)N3CCCC3)c2)ncc1I)c1cccs1 [BX-795] | −0.3476 |
| CC(C)(C)c1cc(/C=C(\C#N)C(N)=S)cc(C(C)(C)C)c1O [Tyrphostin AG 879] | 0.3391 |
| N#CCNC(=O)c1ccc(-c2ccnc(Nc3ccc(N4CCOCC4)cc3)n2)cc1 [Momelotinib (CYT387)] | −1.441 |
| Nc1nc(N)c2nc(-c3cccc(O)c3)c(-c3cccc(O)c3)nc2n1 [TG100-115] | 0.2334 |
| Cl.Cl.O=S(=O)(NCCNC/C=C/c1ccc(Br)cc1)c1cccc2cnccc12 [H 89 2HCl] | −0.01404 |
| CCCCCCCCCCCCc1ccc(S(=O)(=O)Nc2nncs2)cc1 [PHT-427] | −0.02861 |
| Cc1[nH]c(/C=C2\C(=O)Nc3ccc(S(=O)(=O)Cc4c(Cl)cccc4Cl)cc32)c(C)c1C(=O)N1CCC[C@@H]1CN1CCCC1 [PHA-665752] | 0.1781 |
| CN1CC[C@H](c2c(O)cc(O)c3c(=O)cc(-c4ccccc4Cl)oc23)[C@H](O)C1 [Flavopiridol HCl] | 1.693 |

From patent publication US12195490B2, “STRAD-binding agents and uses thereof” (The Regents of the University of California, priority 2020, dated 2025)
